Test results reported in PubChem BioAssay (NCI).
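Following 48 hours of exposure in 96-well plates, responses at five concentrations were used to interpolate endpoints linearly. GI50 marks 50% less growth. At the TGI there is no net growth.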

How the values were obtained:
Test in all cases: growth of human tumour cells (NCI), 48 h
[1] = tested on: RPMI-8226 leukemia
[2] = tested on: LOX IMVI melanoma
[3] = tested on: M14 melanoma
[4] = tested on: OVCAR-3 ovarian
[5] = tested on: DU-145 prostate
[6] = tested on: MALME-3M melanoma
[7] = tested on: UACC-62 melanoma
[8] = tested on: PC-3 prostate
[9] = tested on: COLO 205 colon
[10] = tested on: TK-10 renal
[11] = tested on: SF-295 CNS
[12] = tested on: SK-MEL-28 melanoma
[13] = tested on: NCI-H23 lung
[14] = tested on: SW-620 colon
[15] = tested on: MCF7 breast
[16] = tested on: MDA-N
[17] = tested on: SK-MEL-2 melanoma
[18] = tested on: UO-31 renal
[19] = tested on: OVCAR-5 ovarian
[20] = tested on: HCC-2998 colon
[21] = tested on: SNB-75 CNS
[22] = tested on: ACHN renal
[23] = tested on: HOP-62 NSCLC
[24] = tested on: KM12 colon
[25] = tested on: U251 CNS
[26] = tested on: HOP-92 NSCLC
[27] = tested on: HCT-15 colon
[28] = tested on: K-562 leukemia
[29] = tested on: UACC-257 melanoma
[30] = tested on: SF-539 CNS
[31] = tested on: HT29 colon
[32] = tested on: SK-OV-3 ovarian
[33] = tested on: OVCAR-4 ovarian
[34] = tested on: NCI-H522 lung
[35] = tested on: NCI-H460 lung
[36] = tested on: RXF 393 renal
[37] = tested on: BT-549 breast
[38] = tested on: 786-0 renal
[39] = tested on: OVCAR-8 ovarian
[40] = tested on: EKVX NSCLC
[41] = tested on: CCRF-CEM leukemia
[42] = tested on: IGROV1 ovarian
[43] = tested on: A498 renal
[44] = tested on: T-47D breast
[45] = tested on: SR leukemia
[46] = tested on: NCI/ADR-RES ovarian
[47] = tested on: SN12C renal
[48] = tested on: CAKI-1 renal
[49] = tested on: MDA-MB-435
[50] = tested on: MOLT-4 leukemia
[51] = tested on: SK-MEL-5 melanoma
[52] = tested on: SNB-19 CNS
[53] = tested on: HS 578T breast
[54] = tested on: HL-60(TB) leukemia
[55] = tested on: MDA-MB-231 breast
[56] = tested on: SF-268 CNS
[57] = tested on: HCT-116 colon
[58] = tested on: NCI-H226 lung
[59] = tested on: A549 NSCLC

## COC[C@H]1C(=O)NCC(=O)N2N=CCC[C@H]2C(=O)N(O)[C@H](C)C(=O)O[C@@H](C(C)C)[C@H](NC(=O)[C@@](C)(O)[C@]2(O)CC[C@@H](CC(C)C)[C@H](C)O2)C(=O)N2NCCC[C@@H]2C(=O)N1O
[1]
  TGI: > 100 µM
[2]
  TGI: 0.0316 µM
[3]
  TGI: 0.0355 µM
[4]
  TGI: 0.0362 µM
[5]
  TGI: 0.168 µM
[6]
  TGI: 0.0307 µM
[7]
  TGI: 0.0322 µM
[8]
  TGI: 0.0318 µM
[9]
  TGI: 0.0319 µM
[10]
  TGI: 0.0322 µM
[11]
  TGI: 0.0311 µM
[12]
  TGI: 0.0315 µM
[13]
  TGI: 0.0312 µM
[14]
  TGI: 0.03 µM
[15]
  TGI: 0.0297 µM
[16]
  TGI: 0.0323 µM
[17]
  TGI: 0.0276 µM
[18]
  TGI: 0.341 µM
[19]
  TGI: 0.0341 µM
[20]
  TGI: 0.0279 µM
[21]
  TGI: < 0.0159 µM
[22]
  TGI: 0.147 µM
[23]
  TGI: 0.0322 µM
[24]
  TGI: 0.0276 µM
[25]
  TGI: 0.03 µM
[26]
  TGI: 0.0334 µM
[27]
  TGI: 0.253 µM
[28]
  TGI: > 100 µM
[29]
  TGI: 0.0328 µM
[30]
  TGI: 0.0297 µM
[31]
  TGI: 0.0307 µM

## CN1CCN(CCCOc2cccc3nc(Nc4ccc(F)c(F)c4)ccc23)CC1
[1]
  GI50: 5.2 µM
  TGI: 12.3 µM
[2]
  GI50: 1.03 µM
  TGI: 3.36 µM
[32]
  GI50: 4.39 µM
  TGI: 8.87 µM
[33]
  GI50: 6.42 µM
  TGI: 15.2 µM
[3]
  GI50: 0.68 µM
  TGI: 1.49 µM
[34]
  GI50: 1.01 µM
  TGI: 3.69 µM
[4]
  GI50: 4.58 µM
  TGI: 9.51 µM
[35]
  GI50: 2.37 µM
  TGI: 8.9 µM
[36]
  GI50: 2.11 µM
  TGI: 6.57 µM
[5]
  GI50: 4.32 µM
  TGI: 8.67 µM
[37]
  GI50: 4.34 µM
  TGI: 8.85 µM
[38]
  GI50: 4.66 µM
  TGI: 9.25 µM
[39]
  GI50: 5.13 µM
  TGI: 10.2 µM
[6]
  GI50: 1.44 µM
  TGI: 6.05 µM
[7]
  GI50: 0.695 µM
  TGI: 1.6 µM
[40]
  GI50: 4.83 µM
  TGI: 9.41 µM
[8]
  GI50: 3.83 µM
  TGI: 8.43 µM
[41]
  GI50: 2.42 µM
  TGI: 8.06 µM
[9]
  GI50: 0.646 µM
  TGI: 1.33 µM
[42]
  GI50: 5.55 µM
  TGI: 11.4 µM
[10]
  GI50: 2.63 µM
  TGI: 6.94 µM
[43]
  GI50: 5.65 µM
  TGI: 11.6 µM
[44]
  GI50: 3.39 µM
  TGI: 9.26 µM
[45]
  GI50: 0.87 µM
  TGI: 4.07 µM
[46]
  GI50: 5.16 µM
  TGI: 10.5 µM
[47]
  GI50: 4.87 µM
  TGI: 9.93 µM
[11]
  GI50: 4.64 µM
  TGI: 9.3 µM
[48]
  GI50: 4.45 µM
  TGI: 9.35 µM
[12]
  GI50: 1.08 µM
  TGI: 3.63 µM
[49]
  GI50: 1.27 µM
  TGI: 5.14 µM
[13]
  GI50: 4.67 µM
  TGI: 9.29 µM
[14]
  GI50: 1.82 µM
  TGI: 10.5 µM
[15]
  GI50: 3.33 µM
  TGI: 7.88 µM
[50]
  GI50: 1.31 µM
  TGI: 5.66 µM
[17]
  GI50: 3.95 µM
  TGI: 8.62 µM
[18]
  GI50: 4.34 µM
  TGI: 9.01 µM
[51]
  GI50: 4.44 µM
  TGI: 8.69 µM
[52]
  GI50: 4.89 µM
  TGI: 10.2 µM
[19]
  GI50: 4.71 µM
  TGI: 9.73 µM
[20]
  GI50: 4.56 µM
  TGI: 9.08 µM
[21]
  GI50: 3.92 µM
  TGI: 9.5 µM
[53]
  GI50: 4.73 µM
  TGI: 11.8 µM
[22]
  GI50: 4.57 µM
  TGI: 9.17 µM
[23]
  GI50: 1.25 µM
  TGI: 5.34 µM
[24]
  GI50: 2.35 µM
  TGI: 7.78 µM
[25]
  GI50: 2.68 µM
  TGI: 7.2 µM
[26]
  GI50: 1.43 µM
  TGI: 5.74 µM
[54]
  GI50: 5.18 µM
  TGI: 11 µM
[55]
  GI50: 0.937 µM
  TGI: 3.38 µM
[56]
  GI50: 4.46 µM
  TGI: 9.74 µM
[27]
  GI50: 0.956 µM
  TGI: 3.42 µM
[28]
  GI50: 0.662 µM
  TGI: 1.49 µM
[57]
  GI50: 3.8 µM
  TGI: 7.87 µM
[29]
  GI50: 0.655 µM
  TGI: 1.39 µM
[58]
  GI50: 5.51 µM
  TGI: 11.1 µM
[59]
  GI50: 3.5 µM
  TGI: 8.15 µM
[30]
  GI50: 4.03 µM
  TGI: 8.56 µM
[31]
  GI50: 0.616 µM
  TGI: 1.35 µM

## CCN(CC)CCN1C(=O)C(=O)N(c2cccc3ccccc23)C1=O
[1]
  TGI: > 10 µM
[2]
  TGI: > 10 µM
[32]
  TGI: > 10 µM
[33]
  TGI: > 10 µM
[3]
  TGI: > 10 µM
[34]
  TGI: > 10 µM
[4]
  TGI: > 10 µM
[35]
  TGI: > 10 µM
[36]
  TGI: > 10 µM
[5]
  TGI: > 10 µM
[39]
  TGI: > 10 µM
[6]
  TGI: > 10 µM
[7]
  TGI: > 10 µM
[40]
  TGI: > 10 µM
[8]
  TGI: > 10 µM
[41]
  TGI: > 10 µM
[9]
  TGI: > 10 µM
[42]
  TGI: > 10 µM
[10]
  TGI: > 10 µM
[43]
  TGI: > 10 µM
[44]
  TGI: > 10 µM
[45]
  TGI: > 10 µM
[46]
  TGI: > 10 µM
[47]
  TGI: > 10 µM
[11]
  TGI: > 10 µM
[48]
  TGI: > 10 µM
[12]
  TGI: > 10 µM
[49]
  TGI: > 10 µM
[13]
  TGI: > 10 µM
[14]
  TGI: > 10 µM
[15]
  TGI: > 10 µM
[50]
  TGI: > 10 µM
[16]
  TGI: > 10 µM
[17]
  TGI: > 10 µM
[18]
  TGI: > 10 µM
[51]
  TGI: > 10 µM
[52]
  TGI: > 10 µM
[19]
  TGI: > 10 µM
[20]
  TGI: > 10 µM
[21]
  TGI: > 10 µM
[53]
  TGI: > 10 µM
[22]
  TGI: > 10 µM
[23]
  TGI: > 10 µM
[24]
  TGI: > 10 µM
[25]
  TGI: > 10 µM
[54]
  TGI: > 10 µM
[55]
  TGI: > 10 µM
[56]
  TGI: > 10 µM
[27]
  TGI: > 10 µM
[28]
  TGI: > 10 µM
[57]
  TGI: > 10 µM
[58]
  TGI: > 10 µM
[59]
  TGI: > 10 µM
[30]
  TGI: > 10 µM
[31]
  TGI: > 10 µM
